The subject of the assay is MV-4-11 cells. Briefly: Gene expression microarray analysis (Affymetrix PrimeView) and GSEA. The assay is classed as cell-based, human. The following applies: ProbeSet 11741123_x_at; LIST D. More on the design: RFU PODN (11730768_x_at) / Fold change /veh PODN (11730768_x_at) / RFU LINC00158 (11744669_a_at) / Fold change /veh LINC00158 (11744669_a_at) / RFU DUSP10 (11751237_a_at) / Fold change /veh DUSP10 (11751237_a_at) / RFU ID3 (11757404_x_at) / Fold change /veh ID3 (11757404_x_at) / RFU PLEKHG5 (11737974_s_at) / Fold change /veh PLEKHG5 (11737974_s_at) / RFU LRRC4B (11730491_at) / Fold change /veh LRRC4B (11730491_at) / RFU GIMAP4 (11747438_a_at) / Fold change /veh GIMAP4 (11747438_a_at) / RFU KRT8 (11758183_x_at) / Fold change /veh KRT8 (11758183_x_at) / RFU CNN1 (11734310_a_at) / Fold change /veh CNN1 (11734310_a_at) / RFU VPS37D (11726825_at) / Fold change /veh VPS37D (11726825_at) / RFU C10orf10 (11716522_x_at) / Fold change /veh C10orf10 (11716522_x_at) / RFU KIR2DL2 /// KIR2DL4 /// KIR2DL5A /// KIR2DL5B /// KIR2DS1 /// KIR2DS2 /// KIR2DS3 /// KIR2DS4 /// KIR3DL3 /// KIR3DL3 /// KIR3DS1 (11738374_at) / Fold change /veh KIR2DL2 /// KIR2DL4 /// KIR2DL5A /// KIR2DL5B /// KIR2DS1 /// KIR2DS2 /// KIR2DS3 /// KIR2DS4 /// KIR3DL3 /// KIR3DL3 /// KIR3DS1 (11738374_at) / RFU C1QL1 (11718748_at) / Fold change /veh C1QL1 (11718748_at) / RFU TMPRSS4 (11747572_a_at) / Fold change /veh TMPRSS4 (11747572_a_at) / RFU HAMP (11756126_x_at) / Fold change /veh HAMP (11756126_x_at) / RFU RNFT2 (11725882_a_at) / Fold change /veh RNFT2 (11725882_a_at) / RFU NR4A2 (11747474_a_at) / Fold change /veh NR4A2 (11747474_a_at) / RFU ABCC12 (11746883_a_at) / Fold change /veh ABCC12 (11746883_a_at) / RFU TMEM136 (11760407_x_at) / Fold change /veh TMEM136 (11760407_x_at) / RFU CLDN22 /// WWC2 (11732394_at) / Fold change /veh CLDN22 /// WWC2 (11732394_at) / RFU HLA-DPB1 (11760878_x_at) / Fold change /veh HLA-DPB1 (11760878_x_at) / RFU SPINT1 (11716480_a_at) / Fold change /veh SPINT1 (11716480_a_at) / RFU GAP43 (11754022_s_at) / Fold change /veh GAP43 (11754022_s_at) / RFU A4GNT (11735810_at) / Fold change /veh A4GNT (11735810_at) / RFU PRB3 (11715151_x_at) / Fold change /veh PRB3 (11715151_x_at) / RFU TUBB4B (11761932_at) / Fold change /veh TUBB4B (11761932_at) / RFU CAPN14 (11732068_a_at) / Fold change /veh CAPN14 (11732068_a_at) / RFU TMCC2 (11721928_a_at) / Fold change /veh TMCC2 (11721928_a_at) / RFU IRGQ (11745062_a_at) / Fold change /veh IRGQ (11745062_a_at) / RFU FAM174B (11720279_a_at) / Fold change /veh FAM174B (11720279_a_at) / RFU TMPRSS4 (11748680_a_at) / Fold change /veh TMPRSS4 (11748680_a_at) / RFU FAM212B (11763350_a_at) / Fold change /veh FAM212B (11763350_a_at) / RFU PLEKHG5 (11743358_a_at) / Fold change /veh PLEKHG5 (11743358_a_at) / RFU ZSCAN30 (11745921_a_at) / Fold change /veh ZSCAN30 (11745921_a_at) / RFU CMKLR1 (11741424_a_at) / Fold change /veh CMKLR1 (11741424_a_at) / RFU LOC101060620 /// MAPK8IP1 (11723275_at) / Fold change /veh LOC101060620 /// MAPK8IP1 (11723275_at) / RFU SPTSSB (11747773_x_at) / Fold change /veh SPTSSB (11747773_x_at) / RFU PRSS12 (11739890_at) / Fold change /veh PRSS12 (11739890_at) / RFU BIN1 (11741810_x_at) / Fold change /veh BIN1 (11741810_x_at) / RFU WNT11 (11732464_a_at) / Fold change /veh WNT11 (11732464_a_at) / RFU C10orf10 (11716521_a_at) / Fold change /veh C10orf10 (11716521_a_at) / RFU C5orf56 (11738089_at) / Fold change /veh C5orf56 (11738089_at) / RFU CYB561 (11721691_x_at) / Fold change /veh CYB561 (11721691_x_at) / RFU ANKRD19P (11752326_a_at) / Fold change /veh ANKRD19P (11752326_a_at) / RFU OR2T12 /// OR2T33 /// OR2T8 (11738714_s_at) / Fold change /veh OR2T12 /// OR2T33 /// OR2T8 (11738714_s_at) / RFU VCAN (11748164_a_at) / Fold change /veh VCAN (11748164_a_at) / RFU JSRP1 (11732532_at) / Fold change /veh JSRP1 (11732532_at) / RFU KRTAP10-11 (11738290_x_at) / Fold change /veh KRTAP10-11 (11738290_x_at) / RFU MYO3A (11730013_a_at) / Fold change /veh MYO3A (11730013_a_at) / RFU EBF3 (11725865_a_at) / Fold change /veh EBF3 (11725865_a_at) / RFU CAMK2N1 (11719241_x_at) / Fold change /veh CAMK2N1 (11719241_x_at) / RFU C5orf56 (11738088_a_at) / Fold change /veh C5orf56 (11738088_a_at) / RFU OLFML3 (11715873_a_at) / Fold change /veh OLFML3 (11715873_a_at) / RFU LOC100653217 /// NTM (11731650_a_at) / Fold change /veh LOC100653217 /// NTM (11731650_a_at) / RFU MAPK11 (11762145_a_at) / Fold change /veh MAPK11 (11762145_a_at) / RFU FIZ1 (11724087_x_at) / Fold change /veh FIZ1 (11724087_x_at) / RFU OASL (11726364_x_at) / Fold change /veh OASL (11726364_x_at) / RFU SOX15 (11748057_x_at) / Fold change /veh SOX15 (11748057_x_at) / RFU CD79A (11719716_a_at) / Fold change /veh CD79A (11719716_a_at) / RFU HIST1H1D (11736915_at) / Fold change /veh HIST1H1D (11736915_at) / RFU CASKIN2 (11723855_a_at) / Fold change /veh CASKIN2 (11723855_a_at) / RFU LOC730098 (11760151_x_at) / Fold change /veh LOC730098 (11760151_x_at) / RFU OR4N2 (11742367_at) / Fold change /veh OR4N2 (11742367_at) / RFU PRRT2 (11749266_a_at) / Fold change /veh PRRT2 (11749266_a_at) / RFU SNX32 (11753110_a_at) / Fold change /veh SNX32 (11753110_a_at) / RFU CDHR5 (11726645_a_at) / Fold change /veh CDHR5 (11726645_a_at) / RFU RCAN1 (11760418_a_at) / Fold change /veh RCAN1 (11760418_a_at) / RFU FAM167A (11723789_a_at) / Fold change /veh FAM167A (11723789_a_at) / RFU FAM26E (11764081_at) / Fold change /veh FAM26E (11764081_at) / RFU ISYNA1 (11749810_s_at) / Fold change /veh ISYNA1 (11749810_s_at) / RFU ACY1 (11761880_at) / Fold change /veh ACY1 (11761880_at) / RFU 11764098_at / Fold change /veh 11764098_at / RFU SAMD14 (11745864_x_at) / Fold change /veh SAMD14 (11745864_x_at) / RFU NPB (11741838_a_at) / Fold change /veh NPB (11741838_a_at) / RFU TMPRSS6 (11731388_a_at) / Fold change /veh TMPRSS6 (11731388_a_at) / RFU KRTAP10-2 (11738614_at) / Fold change /veh KRTAP10-2 (11738614_at) / RFU ARHGAP8 /// PRR5-ARHGAP8 (11727945_x_at) / Fold change /veh ARHGAP8 /// PRR5-ARHGAP8 (11727945_x_at) / RFU KRTAP5-7 /// NADSYN1 (11734609_at) / Fold change /veh KRTAP5-7 /// NADSYN1 (11734609_at) / RFU RASL12 (11751679_a_at) / Fold change /veh RASL12 (11751679_a_at) / RFU CDKN2B (11736163_a_at) / Fold change /veh CDKN2B (11736163_a_at) / RFU PRF1 (11729649_at) / Fold change /veh PRF1 (11729649_at) / RFU, ZNF638 /// ZNF638-IT1 / Fold change vs veh, ZNF638 /// ZNF638-IT1 / RFU, PANK3 / Fold change vs veh, PANK3 / RFU, SH3YL1 / Fold change vs veh, SH3YL1 / RFU, ZEB2 / Fold change vs veh, ZEB2 / RFU, NRIP1 / Fold change vs veh, NRIP1 / RFU, PTTG1IP / Fold change vs veh, PTTG1IP / RFU, CAPN2 / Fold change vs veh, CAPN2 / RFU, MED14 / Fold change vs veh, MED14 / RFU, SNORA58 / Fold change vs veh, SNORA58 / RFU, C1orf63 / Fold change vs veh, C1orf63 / RFU, LRRFIP1 / Fold change vs veh, LRRFIP1 / RFU, NDUFAF7 / Fold change vs veh, NDUFAF7 / RFU, SLC12A2 / Fold change vs veh, SLC12A2 / RFU, IBTK / Fold change vs veh, IBTK / RFU, ESF1 / Fold change vs veh, ESF1 / Fold change vs veh, TMEM50B / RFU, TAOK1 / Fold change vs veh, TAOK1 / RFU, ACBD3 / Fold change vs veh, ACBD3 / RFU, TMA16 / Fold change vs veh, TMA16 / RFU, RWDD3 / Fold change vs veh, RWDD3 / RFU, BCAT1 / Fold change vs veh, BCAT1 / RFU, EDEM3 / Fold change vs veh, EDEM3 / RFU, TMEM33 / Fold change vs veh, TMEM33 / RFU, WDR75 / Fold change vs veh, WDR75 / RFU, AHCTF1 / Fold change vs veh, AHCTF1 / RFU, TFRC / Fold change vs veh, TFRC / RFU, ZDHHC17 / Fold change vs veh, ZDHHC17 / RFU, NOM1 / Fold change vs veh, NOM1 / RFU, ARL8B / Fold change vs veh, ARL8B / RFU, ZBTB11 / Fold change vs veh, ZBTB11 / RFU, TAMM41 / Fold change vs veh, TAMM41 / RFU, KIAA1704 /// LOC100996395 / Fold change vs veh, KIAA1704 /// LOC100996395 / RFU, ING1 / Fold change vs veh, ING1 / RFU, TRMT61B / Fold change vs veh, TRMT61B / RFU, FUBP3 / Fold change vs veh, FUBP3 / RFU, TP53 / Fold change vs veh, TP53 / RFU, TNKS2 / Fold change vs veh, TNKS2 / RFU, ZFP14 / Fold change vs veh, ZFP14 / RFU, ACTR2 / Fold change vs veh, ACTR2 / RFU, PPP3R1 / Fold change vs veh, PPP3R1 / RFU, PIK3R1 / Fold change vs veh, PIK3R1 / RFU, HNRNPA1 / Fold change vs veh, HNRNPA1 / RFU, RNF170 / Fold change vs veh, RNF170 / RFU, ZNF28 / Fold change vs veh, ZNF28 / RFU, RNGTT / Fold change vs veh, RNGTT / RFU, OGT / Fold change vs veh, OGT / RFU, BRD1 / Fold change vs veh, BRD1 / RFU, MARS / Fold change vs veh, MARS / RFU, ZNF655 / Fold change vs veh, ZNF655 / RFU, FAHD1 / Fold change vs veh, FAHD1 / RFU, BDP1 / Fold change vs veh, BDP1 / RFU, LRRCC1 / Fold change vs veh, LRRCC1 / RFU, ARID1A / Fold change vs veh, ARID1A / RFU, ZNF146 / Fold change vs veh, ZNF146 / RFU, ZNF330 / Fold change vs veh, ZNF330 / RFU, GPN3 / Fold change vs veh, GPN3 / RFU, C9orf123 / Fold change vs veh, C9orf123 / RFU, N4BP2L2 / Fold change vs veh, N4BP2L2 / RFU, ARFIP1 / Fold change vs veh, ARFIP1 / RFU, FAM179B / Fold change vs veh, FAM179B / RFU, BCL10 / Fold change vs veh, BCL10 / RFU, UHRF1BP1L / Fold change vs veh, UHRF1BP1L / RFU, BET1 / Fold change vs veh, BET1 / RFU, CNOT2 / Fold change vs veh, CNOT2 / RFU, ZNF268 / Fold change vs veh, ZNF268 / Fold change vs veh, ZNF507 / RFU, DGCR2 / Fold change vs veh, DGCR2 / RFU, WDSUB1 / Fold change vs veh, WDSUB1 / Fold change vs veh, HSP90B1 /// MIR3652 / RFU, ADSS / Fold change vs veh, ADSS / RFU, GK / Fold change vs veh, GK / RFU, ZNF148 / Fold change vs veh, ZNF148 / RFU, TAF9 / Fold change vs veh, TAF9 / RFU, SLC1A5 / Fold change vs veh, SLC1A5 / RFU, SLMO2 / Fold change vs veh, SLMO2 / RFU, ABCC4 / Fold change vs veh, ABCC4 / RFU, LOC101060439 /// RAP1B / Fold change vs veh, LOC101060439 /// RAP1B / RFU, RFX7 / Fold change vs veh, RFX7 / RFU, GTPBP10 / Fold change vs veh, GTPBP10 / RFU, CNEP1R1 / Fold change vs veh, CNEP1R1 / RFU, BIVM-ERCC5 /// ERCC5 / Fold change vs veh, BIVM-ERCC5 /// ERCC5 / RFU, ILF3 / Fold change vs veh, ILF3 / RFU 11762660_at / Fold change /veh 11762660_at / RFU VCAN (11757783_s_at) / Fold change /veh VCAN (11757783_s_at) / RFU DDX43 (11728927_at) / Fold change /veh DDX43 (11728927_at) / RFU KRT8 (11758188_x_at) / Fold change /veh KRT8 (11758188_x_at) / RFU NKD1 (11759106_at) / Fold change /veh NKD1 (11759106_at) / RFU SRD5A1 (11742802_a_at) / Fold change /veh SRD5A1 (11742802_a_at) / RFU TPSAB1 /// TPSB2 (11721975_s_at) / Fold change /veh TPSAB1 /// TPSB2 (11721975_s_at) / RFU GSTM3 (11746129_a_at) / Fold change /veh GSTM3 (11746129_a_at) / RFU IL23R (11737362_x_at) / Fold change /veh IL23R (11737362_x_at) / RFU TMEM51 (11727254_a_at) / Fold change /veh TMEM51 (11727254_a_at) / RFU PIWIL2 (11732686_x_at) / Fold change /veh PIWIL2 (11732686_x_at) / RFU ORM1 (11744905_x_at) / Fold change /veh ORM1 (11744905_x_at) / RFU CCDC152 (11743942_at) / Fold change /veh CCDC152 (11743942_at) / RFU ECM1 (11717891_a_at) / Fold change /veh ECM1 (11717891_a_at) / RFU IL23R (11748794_a_at) / Fold change /veh IL23R (11748794_a_at) / RFU TNFAIP8L3 (11732012_x_at) / Fold change /veh TNFAIP8L3 (11732012_x_at) / RFU MBOAT4 (11741988_at) / Fold change /veh MBOAT4 (11741988_at) / RFU 11764193_at / Fold change /veh 11764193_at / RFU TMEM53 (11763286_at) / Fold change /veh TMEM53 (11763286_at) / RFU MAGEB2 (11727129_at) / Fold change /veh MAGEB2 (11727129_at) / RFU TMEM200A (11744735_a_at) / Fold change /veh TMEM200A (11744735_a_at) / RFU CCDC152 (11751479_a_at) / Fold change /veh CCDC152 (11751479_a_at) / RFU FAM211A (11726209_a_at) / Fold change /veh FAM211A (11726209_a_at) / RFU RGS16 (11746705_a_at) / Fold change /veh RGS16 (11746705_a_at) / RFU VCAN (11755009_s_at) / Fold change /veh VCAN (11755009_s_at) / RFU RHOB (11743442_s_at) / Fold change /veh RHOB (11743442_s_at) / RFU RGS16 (11720943_a_at) / Fold change /veh RGS16 (11720943_a_at) / RFU RGS16 (11720944_at) / Fold change /veh RGS16 (11720944_at) / RFU, VPS4B / Fold change vs veh, VPS4B / RFU, CREB1 / Fold change vs veh, CREB1 / RFU, DNAJC13 / Fold change vs veh, DNAJC13 / RFU, GNAQ / Fold change vs veh, GNAQ / RFU, CDK5R1 / Fold change vs veh, CDK5R1 / RFU, ZRANB3 / Fold change vs veh, ZRANB3 / RFU, CUL4A / Fold change vs veh, CUL4A / RFU, CCNY / Fold change vs veh, CCNY / RFU, UFL1 / Fold change vs veh, UFL1 / RFU, COG3 / Fold change vs veh, COG3 / RFU, DIAPH2 / Fold change vs veh, DIAPH2 / RFU, SKA2 / Fold change vs veh, SKA2 / RFU, AFF3 / Fold change vs veh, AFF3 / RFU, LMF1 / Fold change vs veh, LMF1 / RFU, IPO11 / Fold change vs veh, IPO11 / RFU, DFFB / Fold change vs veh, DFFB / RFU, FOXP1 / Fold change vs veh, FOXP1 / RFU, CARD8 / Fold change vs veh, CARD8 / RFU, STRN3 / Fold change vs veh, STRN3 / RFU, ADK / Fold change vs veh, ADK / RFU, RASSF2 / Fold change vs veh, RASSF2 / RFU, WIPF1 / Fold change vs veh, WIPF1 / RFU, LARP1B / Fold change vs veh, LARP1B / RFU, RASA1 / Fold change vs veh, RASA1 / RFU, RB1 / Fold change vs veh, RB1 / RFU, PPFIA1 / Fold change vs veh, PPFIA1 / RFU, MAT2A / Fold change vs veh, MAT2A / RFU, CCT5 / Fold change vs veh, CCT5 / RFU, WDR92 / Fold change vs veh, WDR92 / RFU, CUX1 / Fold change vs veh, CUX1 / RFU, TTC7A / Fold change vs veh, TTC7A / RFU, TMEM135 / Fold change vs veh, TMEM135 / RFU, DEPTOR / Fold change vs veh, DEPTOR / RFU, CPM / Fold change vs veh, CPM / RFU, DNAJB6 / Fold change vs veh, DNAJB6 / RFU, CACNA2D3 / Fold change vs veh, CACNA2D3 / RFU, DTX4 / Fold change vs veh, DTX4 / RFU, TFCP2 / Fold change vs veh, TFCP2 / RFU, GMCL1 /// GMCL1P1 / Fold change vs veh, GMCL1 /// GMCL1P1 / RFU, AEBP2 / Fold change vs veh, AEBP2 / RFU, SNHG1 /// SNORD22 /// SNORD25 /// SNORD26 /// SNORD27 /// SNORD28 /// SNORD29 /// SNORD31 / Fold change vs veh, SNHG1 /// SNORD22 /// SNORD25 /// SNORD26 /// SNORD27 /// SNORD28 /// SNORD29 /// SNORD31 / Fold change (Aza/veh), C12orf56 (ProbeSet 11735607_a_at) / Fold change (ACY-1035/veh), C12orf56 (ProbeSet 11735607_a_at) / Fold change (Aza/veh), FGFR1OP (ProbeSet 11751329_s_at) / Fold change (ACY-1035/veh), FGFR1OP (ProbeSet 11751329_s_at) / Fold change (Aza/veh), VPS36 (ProbeSet 11739960_a_at) / Fold change (ACY-1035/veh), VPS36 (ProbeSet 11739960_a_at) / RFU SYPL1 (11715823_x_at) / Fold change /veh SYPL1 (11715823_x_at) / RFU IGFBP7 (11715501_s_at) / Fold change /veh IGFBP7 (11715501_s_at) / RFU REEP3 (11722064_at) / Fold change /veh REEP3 (11722064_at) / RFU IGLL1 (11728026_x_at) / Fold change /veh IGLL1 (11728026_x_at): dose or concentration left out as unconfirmed.

As to `Nc1ccc(-c2cccs2)cc1NC(=O)c1ccc2c(c1)cc(C1CC1)n2CCN1CCOCC1` [ACY-1035], the “RFU, ADK” value is given as 253.83 RFU.

These data come from paper PMC5218480 (PLoS ONE, 2017).
